Where no end group is shown, it is not given here. [ ]: non-standard residue; d: D form.

This passage reports IC50 results from paper PMC8116589, “Distinguishing Signal From Noise in Immunopeptidome Studies of Limiting-Abundance Biological Samples: Peptides Presented by I-A^b in C57BL/6 Mouse Thymus” (Frontiers in Immunology, 2021).

The target in test [1] is T1, I-A^b (Mus musculus, UniProt P14434+P14483).
T1 sequence (P14434 24-218 limits assumed): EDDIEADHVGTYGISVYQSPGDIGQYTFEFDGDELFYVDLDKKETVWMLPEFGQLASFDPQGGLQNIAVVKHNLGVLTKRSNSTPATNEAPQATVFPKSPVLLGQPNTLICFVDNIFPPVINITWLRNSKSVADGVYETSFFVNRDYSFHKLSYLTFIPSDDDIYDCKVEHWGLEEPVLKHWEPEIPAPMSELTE
T1 sequence (P14483 28-226 limits assumed): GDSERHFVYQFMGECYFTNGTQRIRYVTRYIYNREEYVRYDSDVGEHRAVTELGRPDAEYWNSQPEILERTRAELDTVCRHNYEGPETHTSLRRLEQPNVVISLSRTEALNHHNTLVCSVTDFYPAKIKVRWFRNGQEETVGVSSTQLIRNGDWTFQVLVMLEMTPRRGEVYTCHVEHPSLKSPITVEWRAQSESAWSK
Kind of test: biochemical.
Method: A fluorescence polarization (FP) assay was used to measure the IC50 of using N-terminally-acetylated CLIP peptide labeled with Alexa Fluor 488 tetrafluorophenyl ester (Invitrogen, Carlsbad, CA) via the primary amine at K3 as probe peptide as previously described ([34]). The binding reactions were carried in buffer conditions of 100 mM sodium citrate, 50 mM sodium chloride, 0.1% octyl β-D-glucopyranoside, 5 mM ethylenediaminetetraacetic acid, 0.1% sodium azide, 0.2 mM iodoacetic acid, 1 mM dithiothreitol). […] Thrombin is added during all the reactions at a concentration of 1U/ug and inactivated after 3hrs of reaction using 0.1mM phenylmethanesulfonyl fluoride. […] For calculating IC50 values, 100 nM I-A^b-3R was incubated with 25 nM Alexa488-labeled CLIP probe peptide, in combination with a serial dilution of test peptides, beginning at 100 µM followed by 5-fold dilutions in presence of 0.5µM HLA-DM. The reaction mixture was incubated at 37°C. The capacity of each test peptide to compete for binding of probe peptide was measured by FP after 72 h at 37°C. The assay was read using a Victor X5 Multilabel plate reader (PerkinElmer, Shelton, CT). FP values were converted to fraction bound by calculating [(FP_sample - FP_free)/(FP_no_comp - FP_free)], where FP_sample represents the FP value in the presence of test peptide; FP_free represents the value for free Alexa488-conjugated CLIP peptide; and FP_no_comp represents values in the absence of competitor peptide. We plotted fraction bound versus concentration of test peptide and fit the curve to the equation y = 1/(1 +[pep]/IC50), where [pep] is the concentration of test peptide, y is the fraction of probe peptide bound at that concentration of test peptide, and IC50 is the 50% inhibitory concentration of the test peptide.

Test [2] has as its target soluble I-A^b-3R, mouse MHC-II protein (recombinant I-A^b) (mouse). Kind of test: fluorescence polarisation; competition: 100 nM I-A^b-3R (3R cut off by thrombin, 1 U/ug), 25 nM Alexa488-labeled CLIP probe peptide, test peptide from 100 uM in 5-fold dilutions, 0.5 uM HLA-DM, read after 72 h at 37 C; 100 mM sodium citrate, 50 mM NaCl, 0.1% octyl glucoside, 5 mM EDTA, 1 mM DTT; three independent experiments, mean and SD.

A word on the IC50: it is the concentration needed to halve the response being measured. As for KWKALYTDPKSSETA, the IC50 in test [1] stood at 3450 nM. Same read-out and setting: to APTSALGPKASPAPS belongs 2300 nM; to RVTIAQGGVLPNIQ, 26000 nM; to DGELTYENVQVSPVPGGPP, 1360 nM. The same measure, in the same setting: to ATVSWRAPTAQVESFR belongs 407 nM; to GGSTDYNAAFISRLS, 4960 nM; to IYEAYRQGQANLEAL [IYEAYRQGQANLEAL], 1370 nM. Same read-out and setting: with LSSGFSLEDPQTHSNRIY the figure was 13300 nM; with LPQEKYVTSAPMPEPG, 562 nM. The molecule VGTARYMAPEVLESRM displayed an IC50 in test [1] of 306 nM. Take AAYLWVGAGASEAEKT: the IC50 in test [1] came out at 276 nM. For NDWTVDHPQTLFAWEG, the IC50 in test [1] worked out at 445 nM.

Consider SDLHAFSGSAAWDDS, for which the concentration for half-maximal inhibition (IC50) in test [1] is 1090 nM. Same read-out and setting: with GRKFVYAGSNSGVVQ the figure was 1480 nM; with AGTGVDNVDLEAATR, 57500 nM. GIVNLKSPKTTSATKI: half-maximal inhibition in test [1] (IC50) was put at 12800 nM.

With LLPKYSFAKPSIVSDK, in test [1], the IC50 is 179 nM. With KDITTVNFPPALASGGG, the half-maximal inhibitory concentration (IC50) in test [1] stood at 970 nM. The same measure, in the same setting: to GTTGQLFFPEVNKNHR belongs 2640 nM; to PGQGTTGQLFFPEVNKN, 2900 nM; to IRRYGVSQPDAVAAWK, 250 nM. Same read-out and setting: with VGTARYMAPEVLESR the figure was 197 nM; with QVLSWSSPVGSRTLA, 152 nM. Same read-out and setting: to GIDPYDQPNAIYIER belongs 167 nM; to GKYTYGKPVPGHVKI, 399 nM. In turn, FPKPPSYNVATTLPSYDE showed a half-inhibitory concentration (IC50) in test [1] of 231 nM. As to PSRYITPDQLADLYK, the IC50 in test [1] stood at 2910 nM. On to GALLLNAPVVSITQGR, for which half-maximal inhibition in test [1] (IC50) required 1660 nM.

HNYEGPETHTSLRRL had a concentration for half-maximal inhibition (IC50) in test [1] of 797 nM. Regarding AVLLPKKSSATVGPKAPAVGK, half-maximal inhibition in test [1] (IC50) required 13600 nM.

In test [1], GPGSREAASPVAITVQE yielded an IC50 of 467 nM. The same measure, in the same setting: to ITPSYVAFTPEGERL belongs 1890 nM. In test [1], LVRYTQKAPQVSTPTLV had a half-maximal inhibitory concentration (IC50) of 765 nM. Same read-out and setting: with LNLPTGIPIVYEL the figure was 54400 nM. In turn, TNPIITPVAQENQ had a half-inhibitory concentration (IC50) in test [1] of 1740 nM.

In turn, SDLHAFSGSAAWDDSAG showed an IC50 in test [1] of 1920 nM. The same measure, in the same setting: to VEEDAESEDEDEEDVKLLGMSGK belongs 111000 nM; to YSMGMHTYQVG, 74100 nM; to GPPPYHESLAGASQPP, 1500 nM. In turn, KPSIFHDAKSEIIKGHA registered a half-maximal inhibitory concentration (IC50) in test [1] of 4960 nM. Take ISKQEYDESGPSIVHR: in test [1], the IC50 was 15200 nM. Consider HLNTYDGSHTLRVSQS, for which the midpoint of inhibition in test [1], the IC50, lay at 1360 nM. The molecule AGKLQDQGPDVLLAKVS gave a 50% inhibitory concentration (IC50) in test [1] of 378 nM. On the same count and under the same terms, to APGHYTYSSPHSGSIH belongs 1580 nM; to YVTQFHPPHIEIQ, 1070 nM. Still for that read-out and setting: to LPGELAKHAVSEGTKA belongs 32000 nM; to AQRAGYKAAIVHNVDS, 2420 nM; to RVLIPYQGPSSDYVVVK, 275 nM.

Take ARYIYGKPVQGVAYTR: in test [1], the IC50 worked out at 153 nM. Still for that read-out and setting: with PHPYPALTPEQKKELSDIAHRIVAPGKG the figure was 10900 nM; with EKPVPAAPVPSPVAPAP, 1140 nM. Same read-out and setting: with KPTVTVVSPLPNDSINPQP the figure was 2250 nM; with SLRRLEQPNVVISLSR, 93.8 nM; with NVLRIINEPTAAAIA, 337 nM. On the same count and under the same terms, to AMLQVLGPKPALPEG belongs 1170 nM; to HIADLAGNPEVILPVPA, 13900 nM.

B1: … (Sortilin-related receptor peptide) (peptide)
peptide: RVLIPYQGPSSDYVVVK
On to B1, for which, in test [2], the IC50 amounted to 275 nM.

B2: … (Protein tyrosine phosphatase receptor type C-associated protein peptide) (peptide)
peptide: SDLHAFSGSAAWDDSAG
For the molecule B2, the half-inhibitory concentration (IC50) in test [2] was found to be 1920 nM.

B3: … (H-2 class II histocompatibility antigen, A beta chain peptide) (peptide)
peptide: SLRRLEQPNVVISLSR
B3: the IC50 in test [2] was found to be 93.8 nM.

B4: … (Alpha-enolase peptide) (peptide)
peptide: PSRYITPDQLADLYK
As to B4, in test [2], the IC50 worked out at 2910 nM.

B5: … (Beta-2-microglobulin peptide) (peptide)
peptide: YVTQFHPPHIEIQ
Regarding B5, the IC50 in test [2] came to 1070 nM.

B6: q… (Complement C3 peptide) (peptide)
peptide: QQLAFKQPSSAYAAFN
On to B6, for which, in test [2], the IC50 is 170 nM.

B7: … (Serum albumin peptide) (peptide)
peptide: LVRYTQKAPQVSTPTLV
Consider B7, for which the concentration for half-maximal inhibition (IC50) in test [2] amounted to 765 nM.

B8: … (Prostaglandin-H2 D-isomerase isoform 2 peptide) (peptide)
peptide: APGHYTYSSPHSGSIH
B8: in test [2], the IC50 is 1580 nM.

B9: … (Semaphorin-4D peptide) (peptide)
peptide: GRKFVYAGSNSGVVQ
For the molecule B9, the IC50 in test [2] was 1480 nM.

B10: … (Retinoid-inducible serine carboxypeptidase peptide) (peptide)
peptide: KWKALYTDPKSSETA
Regarding B10, the IC50 in test [2] was 3450 nM.

B11: … (Protein tyrosine phosphatase receptor type C-associated protein peptide) (peptide)
peptide: SDLHAFSGSAAWDDS
For the molecule B11, in test [2], the IC50 was determined as 1090 nM.

B12: … (Platelet endothelial cell adhesion molecule isoform 4 peptide) (peptide)
peptide: KPSIFHDAKSEIIKGHA
Take B12: the IC50 in test [2] turned out to be 4960 nM.

B13: … (Ig mu chain C region peptide) (peptide)
peptide: LPQEKYVTSAPMPEPG
With B13, the half-inhibitory concentration (IC50) in test [2] was determined as 562 nM.

B14: … (B-cell antigen receptor complex-associated protein alpha chain peptide) (peptide)
peptide: PGQGTTGQLFFPEVNKN
Take B14: in test [2], the IC50 turned out to be 2900 nM.

B15: … (Protein shisa-5 isoform 2 peptide) (peptide)
peptide: GPPPYHESLAGASQPP
B15: the half-inhibitory concentration (IC50) in test [2] was 1500 nM.

B16: … (B-cell antigen receptor complex-associated protein alpha chain peptide) (peptide)
peptide: GTTGQLFFPEVNKNHR
Turning to B16, the IC50 in test [2] came to 2640 nM.

B17: … (Gelsolin isoform 2 peptide) (peptide)
peptide: AMLQVLGPKPALPEG
For B17, the IC50 in test [2] worked out at 1180 nM.

B18: … (Hematological and neurological expressed 1 protein peptide) (peptide)
peptide: EKPVPAAPVPSPVAPAP
In the case of B18, the IC50 in test [2] came out at 1140 nM.

B19: … (Heat shock protein HSP 90-beta peptide) (peptide)
peptide: LSSGFSLEDPQTHSNRIY
As for B19, the 50% inhibitory concentration (IC50) in test [2] was 13300 nM.

B20: … (Alpha-enolase peptide) (peptide)
peptide: HIADLAGNPEVILPVPA
Regarding B20, the 50% inhibitory concentration (IC50) in test [2] is 13900 nM.

B21: … (Protein EVI2B peptide) (peptide)
peptide: KPTVTVVSPLPNDSINPQP
As for B21, the 50% inhibitory concentration (IC50) in test [2] worked out at 2250 nM.

B22: … (Tenascin peptide) (peptide)
peptide: ATVSWRAPTAQVESFR
Regarding B22, the IC50 in test [2] worked out at 407 nM.

B23: … (B-cell differentiation antigen CD72 peptide) (peptide)
peptide: DGELTYENVQVSPVPGGPP
Regarding B23, the IC50 in test [2] worked out at 1360 nM.

B24: … (Complement C4-B peptide) (peptide)
peptide: ARYIYGKPVQGVAYTR
As to B24, the half-maximal inhibitory concentration (IC50) in test [2] is 153 nM.

B25: … (TGF-beta receptor type-2 peptide) (peptide)
peptide: VGTARYMAPEVLESR
Turning to B25, in test [2], the concentration for half-maximal inhibition (IC50) was determined as 197 nM.

B26: … (TGF-beta receptor type-2 peptide) (peptide)
peptide: VGTARYMAPEVLESRM
As for B26, the IC50 in test [2] was determined as 306 nM.

B27: … (NEDD4 family-interacting protein 1 peptide) (peptide)
peptide: FPKPPSYNVATTLPSYDE
On to B27, for which the IC50 in test [2] was 231 nM.

B28: … (Tissue alpha-L-fucosidase peptide) (peptide)
peptide: GIVNLKSPKTTSATKI
For the molecule B28, the IC50 in test [2] stood at 12800 nM.

B29: … (Sortilin-related receptor peptide) (peptide)
peptide: GIDPYDQPNAIYIER
For the molecule B29, the IC50 in test [2] came out at 167 nM.

B30: … (78 kDa glucose-regulated protein peptide) (peptide)
peptide: ITPSYVAFTPEGERL
B30: in test [2], the half-inhibitory concentration (IC50) is 1890 nM.

B31: … (H-2 class II histocompatibility antigen, A beta chain peptide) (peptide)
peptide: HNYEGPETHTSLRRL
Regarding B31, the 50% inhibitory concentration (IC50) in test [2] worked out at 797 nM.

B32: … (Gelsolin isoform 2 peptide) (peptide)
peptide: AAYLWVGAGASEAEKT
Take B32: the IC50 in test [2] is 276 nM.

B33: … (Nucleophosmin peptide) (peptide)
peptide: VEEDAESEDEDEEDVKLLGMSGK
Consider B33, for which the IC50 in test [2] amounted to 111000 nM.

B34: … (Murinoglobulin-1 peptide) (peptide)
peptide: GKYTYGKPVPGHVKI
B34: in test [2], the IC50 is 399 nM.

B35: …mV (Murinoglobulin-1 peptide) (peptide)
peptide: LEISYTGSRPASN[code m]V
modifications: not fully specified; printed as LEISYTGSRPASNmV (Murinoglobulin-1 peptide)
Take B35: the IC50 in test [2] was 349 nM.

B36: … (L-amino-acid oxidase isoform 2 peptide) (peptide)
peptide: GALLLNAPVVSITQGR
With B36, the IC50 in test [2] was found to be 1660 nM.

B37: … (Apolipoprotein E peptide) (peptide)
peptide: TNPIITPVAQENQ
Regarding B37, the half-inhibitory concentration (IC50) in test [2] turned out to be 1740 nM.
